Laboratory results published in patent publication US20070254914A1, “Low-concentration atropine solution for preventing myopia progression and preparing method thereof” (Non-Profit Organization Chang Gung Memorial Hospital, priority 2006, published 2007).
Where a name gives a salt, the structure may show the parent alone. Read-outs that look alike come from different tables or passages of the source.

Assays:
mydriasis phenomenon = experiment: durations of mydriasis phenomenon in administration of different ingredients for preventing myopia progression; type: in vivo, human
[1] = test system: patients (pupil diameter); experiment: mydriasis phenomenon (pupil diameter) after administration of different atropine concentrations; type: in vivo, human
patients (photophobia) = experiment: photophobia ratios with administration of different atropine concentrations; type: in vivo, human
Description: According to following Table 6, patients treated with 0.05% (w/w) atropine solution suffered the photophobia in a lower ratio in comparison with ones treated with 0.1% (w/w) atropine solution.

[2] = test system: patients (accommodation capability of eyes); experiment: influences on accommodation capability with administration of different atropine concentrations; type: in vivo, human
Procedure: Moreover, the myopia exacerbation also substantially relates to visual distance during near working that the patient continuously overuses high accommodation capability of eyes.
With regard to Table 4, 21 patients were treated with 0.05% (w/w) atropine solution in a first treatment group, 9 patients were treated with 0.1% (w/w) atropine solution in a second treatment group and 6 patients were treated with blank solution in the control group. Male-female ratios in the treatment groups and the control group were respectively […] in the first treatment group, 5:4 in the second treatment group and 3:3 in the control group.
Wherein, average ages were respectively 9.4±1.7 years old in the first treatment group, 11±1.7 years old in the second treatment group and 10±2 years old in the control group.
Treating periods of the treatment groups in average were respectively 22.43±12.9 months in the first treatment group and 25.88±12.47 months in the second treatment group.
Observation timing after applying the atropine solutions were respectively 16.37±2.53 hours in the first treatment group and 17.11±1.9 hours in the second treatment group.

Myopic Children = settings: Shin's study 1999, cited from earlier work
[3] = test system: patients (myopia progression); experiment: study of the present invention in 2006: myopia progression in patients treated with 0.05% atropine solution; type: in vivo, human; settings: for Increased diopter (D) per year: 0.05% (w/w) atropine solution
Description: With regard to Table 2, 21 patients (42 eyes) were subject in the treatment group and 36 patients were subject in the control group. All patients are residents in southern Taiwan. Male-female ratios in the treatment group and the control group were respectively 12:9 and 18:18.
Wherein, an average age in the treatment group was 8.38±1.47 years old (range from 6 to 12 years old) and an average age in the control group was 8.11±1.12 years old (range from 6 to 12 years old).
Treating periods of the treatment group and the control group in average are respectively 19.95±9.04 months and 21.47±10.02.

[4] = marketed concentrations as listed in Table 7 (Soln/Ointment 0.5%-3%)

For `CN1[C@@H]2CC[C@H]1C[C@@H](OC(=O)C(CO)c1ccccc1)C2` (stereo partly shown) [Atropine sulfate], the “Occurring time (mydriasis)” value (mydriasis phenomenon; Soln, 0.05%) was 45 to 120 min, the Duration of mydriasis (mydriasis phenomenon; Soln, 0.05% (w/w)) was 0.5 to 0.75 days and the Duration of mydriasis (mydriasis phenomenon; [4]) was 7 to 14 days. The “Occurring time (mydriasis)” value (mydriasis phenomenon; [4]) was 45 to 120 min.

With `CN1[C@@H]2CC[C@H]1C[C@@H](OC(=O)C(CO)c1ccccc1)C2` (stereo partly shown) [Atropine, atropine] the Pupil diameter ([1]; 0.05% atropine solution) was 5.52 mm, the Pupil diameter ([1]; 0.1% atropine solution) was 6.10 mm and the Photophobia ratio (patients (photophobia); 0.05% atropine solution) was 66.67%. For the same compound, the Photophobia ratio (patients (photophobia); 0.1% atropine solution) was 85.71%, the Accommodation capability ([2]; 0.05% atropine solution, observed 16.37±2.53 hours after applying, treating period 22.43±12.9 months) was 2.45(D) and the Accommodation capability ([2]; 0.1% atropine solution, observed 17.11±1.9 hours after applying, treating period 25.88±12.47 months) was 2.22(D). The Duration of mydriasis (mydriasis phenomenon; 1% (w/w) atropine solution) was 7 to 14 days, the Duration of mydriasis (mydriasis phenomenon; Soln, 0.05% (w/w), listed as atropine) was 0.5 to 0.75 days and the Myopia progression (Myopic Children; 0.1% atropine solution) was 0.47 diopter/yr. For the same compound, the Myopia progression (Myopic Children; 0.25% atropine solution) was 0.45 diopter/yr, the Myopia progression (Myopic Children; 0.5% atropine solution) was 0.04 diopter/yr and the “Increased diopter (D) per year” value ([3]; 1st (yearly follow-up)) was 0.34(D/yr). The “Increased diopter (D) per year” value ([3]; 2nd (yearly follow-up)) was 0.32(D/yr), the “Increased diopter (D) per year” value ([3]; 3rd (yearly follow-up)) was 0.14(D/yr) and the “Increased diopter (D) per year” value ([3]; All (average)) was 0.29(D/yr). For the same compound, the Myopia progression ([3]; 0.05% atropine solution, 21 patients (42 eyes), 6 to 12 years old, treating period 19.95±9.04 months) was 0.28(diopter/yr).

In the case of `CN(C)CCOC(=O)C(c1ccccc1)C1(O)CCCC1` (stereo not shown) [Cyclopentolate Hydrochloride], the Duration of mydriasis (mydriasis phenomenon; human, in vivo) is reported as 2 days and the “Occurring time (mydriasis)” value (mydriasis phenomenon; human, in vivo) is reported as 30 to 60 min.
